In US4321208A, “Preparation of directly iodinated steroid hormones and related compounds” (priority 1976, dated 1982):

How the values were obtained:
[1] = test system: antiserum against estradiol-17 beta; test: Radioimmunoassay: competition of nonradioactive estradiol with ^125 I estradiol-17 beta for antiserum; format: binding; settings: antiserum 1:10,000 or 1:20,000; ^125 I estradiol-17 beta 70 Ci/mM
Experimental: The procedure of this assay are identical as described by the instant inventor and authors C. […] After incubation, the unbound hormone was removed by charcoal adsorption.

[2] = test system: breast cancer tumor tissue; settings: injected; patients responding to endocrine treatment vs those who do not respond; cited from earlier work
anti-serum = settings: Abraham and Odell; iodinated at positions 2 and 4; cited from earlier work

C[C@]12CC[C@@H]3c4ccc(O)cc4CC[C@H]3[C@@H]1CC[C@@H]2O [unlabelled estradiol, estradiol]
effect of unlabelled estradiol on percent bound ^125 I estradiol [1]: the percent bound ^125 I estradiol decreases

C[C@]12CC[C@@H]3c4ccc(O)cc4CC[C@H]3[C@@H]1CC[C@@H]2O [tritiated estradiol]
concentration of tritiated hormone in tumor tissue [2]: usually concentrate more tritiated hormones in their tumor tissue

C[C@]12CC[C@@H]3c4cc(I)c(O)c(I)c4CC[C@H]3[C@@H]1CC[C@@H]2O
binding to anti-serum (anti-serum): unable to bind the anti-serum
